Data taken from patent US20100068208A1, “Degranulation inhibitor” (priority 2005, published 2010).
Where two headings read alike, the source gives them in different places.

Columns and labels:
TGR12 [1] = type: cell-based, human; conditions: for EC50: CHO-TGR12, read-out: EC50 in the calcium increasing effect on CHO-TGR12
Method: CHO/dhfr^− cells (hereinafter CHO) were incubated in α-MEM (Invitrogen) supplemented with 10% fetal calf serum. After a termination codon in the TGR12-encoding nucleotide sequence was removed, a nucleotide sequence ligated with the nucleotide sequence encoding GFP (Wako Pure Chemical) [hereinafter briefly referred to as TGR12-GFP (DNA having the nucleotide sequence represented by SEQ ID NO: 31)] was incorporated into vector plasmid pAKKO-111H (the same vector plasmid as pAKKO1.11H described in Biochim. Biophys. Acta, 1219, 251-259 (1994)) for animal cell expression, and the vector plasmid was stably expressed to establish TGR12-GFP-expressed CHO cell line (hereinafter CHO-TGR12). CHO-TGR12 was incubated in nucleic acid-free α-MEM medium (Invitrogen) containing 10% dialyzed fetal calf serum.
CHO-TGR12 was plated in a 96-well plate at a density of 30,000 cells/well. After incubation overnight, the medium was discarded and 100 μL/well of assay buffer [Hank's Balanced Salt Solution (Invitrogen), 20 mM HEPES (Dojin Chemical Laboratory) and 2.5 mM Probenecid (Sigma)] containing 4 μM Fluo3-AM (Dojin Chemical Laboratory) was added, which was then allowed to stand for an hour at 37° C. […] After the cells were washed with assay buffer, fluorescence reflecting changes in intracellular calcium levels was assayed on FLIPR (Molecular Device). Ten seconds after initiation of the assay, 50 μL of a sample was added at a rate of 50 μL/second. Fluorescence measurement was taken every 1 second during the first 60 seconds and then every 6 seconds during the next 120 seconds; the highest fluorescence intensity over a 3 minute period was taken as the maximum activity under the stimulation condition, representing the mean value of 3 wells. The EC50 values were determined using Graphpad PRISM 4 (Graphpad Software).

[2] = system: human mast cell line LAD 2; assay: TGR12 ligand-dependent degranulation of LAD 2 (β-hexosaminidase release); type: cell-based; conditions: for EC50: LAD 2, read-out: EC50 in the degranulation on LAD 2
Method: Human mast cell line LAD 2 was incubated in StemPro-34 medium (Invitrogen) supplemented with 100 ng/mL of stem cell factor (Immuno-Biological Laboratories Co., Ltd.). […] Subsequently, Tyrode's buffer containing 50 μL of TGR12 ligand (Peptide Institute, Inc.) in various concentrations was added and incubation was continued at 37° C. for further 20 minutes to induce degranulation. The degree of degranulation was determined by assaying the β-hexosaminidase activity in the degranulation assay supernatant as given below. The supernatant was dispensed into a 96-well plate and 0.1M citrate (pH 4.5)/1 mM 4-methyl umbelliferyl-2-acetamido-2-deoxy-beta-D-glucopyranoside (Wako Pure Chemical) in 5-fold of the supernatant was added thereto, followed by incubation at 37° C. for an hour. […] The activity was then assayed using Fusion-α (Perkin-Elmer). The β-hexosaminidase activity was also shown by the activity in the supernatant obtained by centrifugation after freezing and thawing LAD 2 four times, which was made total β-hexosaminidase activity in LAD 2, and the degree of degranulation was shown as the percentage of the β-hexosaminidase activity in the LAD 2 supernatant based on the total β-hexosaminidase activity.

TGR12 [3] = system: TGR12; parameters: species or system human; conditions: CHO-TGR12GFP, 200 pM [125I]-rCST14 (Y0), 4° C. 2 hours; read-out: IC50 (competitive binding, Hill plot analysis)
Method: [^125I]-Labeled rat cortistatin-14 (Tyr0) (hereinafter [^125I]-rCST14 (Y0)) used for the competitive binding assay was prepared as follows. After 3 nmol/6 μL of rCST14 (Y0) (Funakoshi Co.), 6 μL of 10 μg/mL lactoperoxidase (in 0.1M HEPES (pH 7, 4)), 6 μL of 0.001% H2O2 and 6 μL of 37 MBq NaI (6 μL of 15 mg/100 mL NaI was used in cold run) were mixed, the mixture was reacted at room temperature for 20 minutes. […] For fractionation, TSKgel ODS-80™ was used, 10% MeCN/0.1% TFA was used as eluant A and 60% MeCN/0.1% TFA was used as eluant B at a gradient of 0-25 (2 mins.), 25-27.5 (3 mins.) and 27.5-35 (60 mins.), respectively; and the flow rate was 1 mL/min.
CHO/dhfr^− cells (hereinafter CHO) were incubated in α-MEM (Invitrogen) supplemented with 10% fetal calf serum. […]
The binding assay using CHO-TGR12GFP was performed as follows. […] After washing 3 times with 500 μL of the assay buffer, the cells were lysed in 250 μL of 0.5N NaOH and the lysate was recovered for measurement of the radioactivity.

RBL-2H3 = assay: Intracellular calcium increasing activity in RBL2H3 (FLIPR); type: cell-based; parameters: unit not given here
Summary of the method: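 Parental RBL-2H3 and RBL-2H3 stably expressing human TGR12 loaded with 4 μM Fluo3-AM for 1 h at 37 °C in HBSS/20 mM HEPES/2.5 mM probenecid.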

[4] = CHO-TGR12, 0.3 nM, highest fluorescence intensity over 3 minutes

SMILES	maximum activity in the calcium increasing effect (TGR12 [1]; [4])	maximum activity in the calcium increasing effect (TGR12 [1]; CHO-TGR12, 3 nM)	maximum activity in the calcium increasing effect (TGR12 [1]; CHO-TGR12, 30 nM)	maximum activity in the calcium increasing effect (TGR12 [1]; CHO-TGR12, 300 nM)	maximum activity in the calcium increasing effect (TGR12 [1]; CHO-TGR12, 3000 nM)	EC50 (TGR12 [1]) [µM]	stimulated degranulation (β-hexosaminidase in supernatant, % of total) ([2]; LAD 2, 10 nM) [%]	stimulated degranulation (β-hexosaminidase in supernatant, % of total) ([2]; LAD 2, 30 nM) [%]	stimulated degranulation (β-hexosaminidase in supernatant, % of total) ([2]; LAD 2, 100 nM) [%]	stimulated degranulation (β-hexosaminidase in supernatant, % of total) ([2]; LAD 2, 300 nM) [%]	stimulated degranulation (β-hexosaminidase in supernatant, % of total) ([2]; LAD 2, 1 μM) [%]	stimulated degranulation (β-hexosaminidase in supernatant, % of total) ([2]; LAD 2, 3 μM) [%]	EC50 [2] [µM]	IC50 (TGR12 [3]) [µM]	maximum activity in the calcium increasing effect (RBL-2H3; RBL2H3, 1 nM)	maximum activity in the calcium increasing effect (RBL-2H3; RBL2H3, 10 nM)	maximum activity in the calcium increasing effect (RBL-2H3; RBL2H3, 100 nM)	maximum activity in the calcium increasing effect (RBL-2H3; RBL2H3, 1 μM)	maximum activity in the calcium increasing effect (RBL-2H3; RBL2H3, 10 μM)
CC[C@H](C)[C@H](NC(=O)CNC(=O)[C@H](CC(=O)O)NC(=O)[C@H](CO)NC(=O)[C@@H](N)Cc1c[nH]cn1)C(=O)N[C@@H](Cc1ccccc1)C(=O)N[C@H](C(=O)N[C@@H](CC(=O)O)C(=O)N[C@@H](CO)C(=O)N[C@@H](Cc1ccc(O)cc1)C(=O)N[C@@H](CO)C(=O)N[C@@H](CCCNC(=N)N)C(=O)N[C@@H](Cc1ccc(O)cc1)C(=O)N[C@@H](CCCNC(=N)N)C(=O)N[C@@H](CCCCN)C(=O)N[C@@H](CCC(N)=O)C(=O)N[C@@H](CCSC)C(=O)N[C@@H](C)C(=O)N[C@H](C(=O)N[C@@H](CCCCN)C(=O)N[C@@H](CCCCN)C(=O)N[C@@H](Cc1ccc(O)cc1)C(=O)N[C@@H](CC(C)C)C(=O)N[C@@H](C)C(=O)N[C@@H](C)C(=O)N[C@H](C(=O)N[C@@H](CC(C)C)C(N)=O)C(C)C)C(C)C)[C@@H](C)O [PACAP-27]	48	58	939	23030	23728	~0.093	2.6	19.6	59.4	71.1	75.1	69.1	~0.051	0.264	47	37	63	59	45
CC[C@H](C)[C@H](NC(=O)[C@H](CO)NC(=O)[C@H](CC(N)=O)NC(=O)[C@H](CC(C)C)NC(=O)[C@H](Cc1ccc(O)cc1)NC(=O)[C@H](CCCCN)NC(=O)[C@H](CCCCN)NC(=O)[C@@H](NC(=O)[C@H](C)NC(=O)[C@H](CCSC)NC(=O)[C@H](CCC(N)=O)NC(=O)[C@H](CCCCN)NC(=O)[C@H](CCCNC(=N)N)NC(=O)[C@H](CC(C)C)NC(=O)[C@H](CCCNC(=N)N)NC(=O)[C@@H](NC(=O)[C@H](Cc1ccc(O)cc1)NC(=O)[C@H](CC(N)=O)NC(=O)[C@H](CC(=O)O)NC(=O)[C@@H](NC(=O)[C@H](Cc1ccccc1)NC(=O)[C@@H](NC(=O)[C@H](C)NC(=O)[C@H](CC(=O)O)NC(=O)[C@H](CO)NC(=O)[C@@H](N)Cc1c[nH]cn1)C(C)C)[C@@H](C)O)[C@@H](C)O)C(C)C)C(=O)N[C@@H](CC(C)C)C(=O)N[C@@H](CC(N)=O)C(N)=O [VIP, vasoactive intestinal polypeptide]	56	60	16	11153	24007	~0.305	1.5	4.0	36.7	63.9	71.7	76.1	~0.105	2.04					
